# Source: the NIST ThermoML archive (doi:10.1021/je900596d)
# Numbers after ± are expanded uncertainties.
# Details: Vibrating tube method
smiles,measurement,setting,value
FC(F)=C(F)C(F)(F)F [hexafluoropropene],mass density,"353.12 K, 2589.9 kPa, Fluid (supercritical or subcritical phases)",239.58 ± 0.55 kg/m3
same,mass density,"353.12 K, 2605.1 kPa, Fluid (supercritical or subcritical phases)",243.48 ± 0.57 kg/m3
same,mass density,"353.12 K, 2619.7 kPa, Fluid (supercritical or subcritical phases)",247.37 ± 0.59 kg/m3
same,mass density,"353.12 K, 2635.2 kPa, Fluid (supercritical or subcritical phases)",251.52 ± 0.61 kg/m3
same,mass density,"353.12 K, 2649.7 kPa, Fluid (supercritical or subcritical phases)",255.58 ± 0.65 kg/m3
same,mass density,"353.12 K, 2670.4 kPa, Fluid (supercritical or subcritical phases)",261.98 ± 0.7 kg/m3
same,mass density,"353.12 K, 2690 kPa, Fluid (supercritical or subcritical phases)",268.46 ± 0.75 kg/m3
same,mass density,"353.12 K, 2702.3 kPa, Fluid (supercritical or subcritical phases)",272.91 ± 0.81 kg/m3
same,mass density,"353.12 K, 2710.7 kPa, Fluid (supercritical or subcritical phases)",275.88 ± 0.82 kg/m3
same,mass density,"353.12 K, 2718.3 kPa, Fluid (supercritical or subcritical phases)",278.85 ± 0.85 kg/m3
same,mass density,"353.12 K, 2725 kPa, Fluid (supercritical or subcritical phases)",281.55 ± 0.89 kg/m3
same,mass density,"353.12 K, 2731.2 kPa, Fluid (supercritical or subcritical phases)",284.3 ± 0.93 kg/m3
same,mass density,"353.12 K, 2737.4 kPa, Fluid (supercritical or subcritical phases)",286.74 ± 0.95 kg/m3
same,mass density,"353.12 K, 2744.8 kPa, Fluid (supercritical or subcritical phases)",290.14 ± 1 kg/m3
same,mass density,"353.12 K, 2751.1 kPa, Fluid (supercritical or subcritical phases)",293.08 ± 1.1 kg/m3
same,mass density,"353.12 K, 2757.6 kPa, Fluid (supercritical or subcritical phases)",296.25 ± 1.1 kg/m3
same,mass density,"353.12 K, 2764.5 kPa, Fluid (supercritical or subcritical phases)",299.88 ± 1.1 kg/m3
same,mass density,"353.12 K, 2771.7 kPa, Fluid (supercritical or subcritical phases)",303.81 ± 1.2 kg/m3
same,mass density,"353.13 K, 2798.4 kPa, Liquid",887.06 ± 1.3 kg/m3
same,mass density,"353.13 K, 2805.3 kPa, Liquid",888.96 ± 1.3 kg/m3
same,mass density,"353.13 K, 2812.6 kPa, Liquid",890.6 ± 1.3 kg/m3
same,mass density,"353.13 K, 2818.9 kPa, Liquid",891.84 ± 1.3 kg/m3
same,mass density,"353.13 K, 2825.7 kPa, Liquid",893.67 ± 1.2 kg/m3
same,mass density,"353.13 K, 2832.6 kPa, Liquid",894.71 ± 1.2 kg/m3
same,mass density,"353.13 K, 2839.4 kPa, Liquid",896.74 ± 1.2 kg/m3
same,mass density,"353.13 K, 2846 kPa, Liquid",898.09 ± 1.2 kg/m3
same,mass density,"353.13 K, 2852.6 kPa, Liquid",899.46 ± 1.2 kg/m3
same,mass density,"353.13 K, 2859.8 kPa, Liquid",900.81 ± 1.2 kg/m3
same,mass density,"353.13 K, 2866.7 kPa, Liquid",902.11 ± 1.2 kg/m3
same,mass density,"353.13 K, 2873.8 kPa, Liquid",903.63 ± 1.2 kg/m3
same,mass density,"353.13 K, 2881 kPa, Liquid",904.67 ± 1.2 kg/m3
same,mass density,"353.13 K, 2888.2 kPa, Liquid",906.06 ± 1.2 kg/m3
same,mass density,"353.13 K, 2908.5 kPa, Liquid",909.29 ± 1.3 kg/m3
same,mass density,"353.13 K, 2928.4 kPa, Liquid",912.84 ± 1.3 kg/m3
same,mass density,"353.13 K, 2948.2 kPa, Liquid",915.77 ± 1.2 kg/m3
same,mass density,"353.13 K, 2969.5 kPa, Liquid",918.7 ± 1.2 kg/m3
same,mass density,"353.13 K, 2989.9 kPa, Liquid",921.51 ± 1.2 kg/m3
same,mass density,"353.13 K, 3009.6 kPa, Liquid",924.14 ± 1.2 kg/m3
same,mass density,"353.13 K, 3030.5 kPa, Liquid",926.96 ± 1.2 kg/m3
same,mass density,"353.13 K, 3051.7 kPa, Liquid",929.82 ± 1.2 kg/m3
same,mass density,"353.13 K, 3072.6 kPa, Liquid",932.36 ± 1.1 kg/m3
same,mass density,"353.13 K, 3094.1 kPa, Liquid",935.03 ± 1.1 kg/m3
same,mass density,"353.13 K, 3116.1 kPa, Liquid",937.73 ± 1.1 kg/m3
same,mass density,"353.13 K, 3136.7 kPa, Liquid",940.03 ± 1.1 kg/m3
same,mass density,"353.13 K, 3159.1 kPa, Liquid",942.35 ± 1.1 kg/m3
same,mass density,"353.13 K, 3182.1 kPa, Liquid",944.69 ± 1.2 kg/m3
same,mass density,"353.13 K, 3205.5 kPa, Liquid",946.93 ± 1.1 kg/m3
same,mass density,"353.13 K, 3225.2 kPa, Liquid",948.79 ± 1.1 kg/m3
same,mass density,"353.13 K, 3246.7 kPa, Liquid",950.79 ± 1.1 kg/m3
same,mass density,"353.13 K, 3265.8 kPa, Liquid",952.67 ± 1.1 kg/m3
same,mass density,"353.13 K, 3286.3 kPa, Liquid",954.54 ± 1.1 kg/m3
same,mass density,"353.13 K, 3309.6 kPa, Liquid",956.7 ± 1.1 kg/m3
same,mass density,"353.13 K, 3330.5 kPa, Liquid",958.57 ± 1.1 kg/m3
same,mass density,"353.13 K, 3353 kPa, Liquid",960.43 ± 1.1 kg/m3
same,mass density,"353.13 K, 3369.2 kPa, Liquid",961.77 ± 1.1 kg/m3
same,mass density,"353.13 K, 3392.7 kPa, Liquid",963.71 ± 1.1 kg/m3
same,mass density,"353.13 K, 3399 kPa, Liquid",964.17 ± 1.1 kg/m3
same,mass density,"353.13 K, 3429.5 kPa, Liquid",966.86 ± 1.1 kg/m3
same,mass density,"353.13 K, 3457.9 kPa, Liquid",969.07 ± 1.1 kg/m3
same,mass density,"353.13 K, 3487.3 kPa, Liquid",971.26 ± 1.1 kg/m3
same,mass density,"353.13 K, 3521.2 kPa, Liquid",973.81 ± 1.1 kg/m3
same,mass density,"353.13 K, 3546.8 kPa, Liquid",975.65 ± 1.1 kg/m3
same,mass density,"353.13 K, 3574.3 kPa, Liquid",977.54 ± 1.1 kg/m3
same,mass density,"353.13 K, 3599.5 kPa, Liquid",979.42 ± 1.1 kg/m3
same,mass density,"353.13 K, 3626.9 kPa, Liquid",981.32 ± 1.1 kg/m3
same,mass density,"353.13 K, 3653.9 kPa, Liquid",982.94 ± 1.1 kg/m3
same,mass density,"353.13 K, 3680.4 kPa, Liquid",984.8 ± 1.1 kg/m3
